For twelve compounds, IC50 results are on record in US20160193206A1, “BET-PROTEIN-INHIBITING DIHYDROPYRIDOPYRAZINONES” (BAYER PHARMA AKTIENGESELLSCHAFT, priority 2012, published 2016).

The target in experiment [1] is T1, BRD4 bromo domain 2 [BRD4(2)] (Homo sapiens, UniProt O60885).
T1 construct: N-terminally His6-tagged BRD4(2) (amino acids 357-445); made in house; host or cells: E. coli
Nature of the experiment: BRD4(2)/acetylated peptide H4 binding assay (TR-FRET). As to conditions: inhibition of interaction between His6-tagged BRD4(2) (amino acids 357-445) and acetylated histone H4 peptide. The text has this: (§1) Protein-Protein Interaction Assay: BRD4/Acetylated Peptide H4 Binding Assay
2. Assay Description for BRD4 Bromo Domain 2 [BRD4(2)]
To assess the BRD4(2) binding strength of the substances described in this application, the ability thereof to inhibit the interaction between BRD4(2) and acetylated histone H4 in a dose-dependent manner was quantified.
(§2) For this purpose, a time-resolved fluorescence resonance energy transfer (TR-FRET) assay was used, which measures the binding between N-terminally His6-tagged BRD4(2) (amino acids 357-445) and a synthetic acetylated histone H4 (Ac-H4) peptide with sequence SGRGK(Ac)GGK(Ac)GLGK(Ac)GGAK(Ac)RHRKVLRDNGSGSK-biotin. The recombinant BRD4(2) protein produced in-house according to Filippakopoulos et al., Cell, 2012, 149:214-231 was expressed in E. coli and purified by means of (Ni-NTA) affinity and (Sephadex G-75) size exclusion chromatography. The Ac-H4 peptide can be purchased, for example, from Biosyntan (Berlin, Germany).
(§3) In the assay, typically 11 different concentrations of each substance (0.1 nM, 0.33 nM, 1.1 nM, 3.8 nM, 13 nM, 44 nM, 0.15 μM, 0.51 μM, 1.7 μM, 5.9 μM and 20 μM) were analysed as duplicates on the same microtitre plate. For this purpose, 100-fold concentrated solutions in DMSO were prepared by serial dilutions (1:3.4) of a 2 mM stock solution into a clear, 384-well microtitre plate (Greiner Bio-One, Frickenhausen, Germany). From this, 50 nl were transferred into a black test plate (Greiner Bio-One, Frickenhausen, Germany). The test was started by the addition of 2 μl of a 2.5-fold concentrated BRD4(2) solution (final concentration typically 100 nM in the 5 μl of reaction volume) in aqueous assay buffer [50 mM HEPES pH 7.5, 50 mM sodium chloride (NaCl); 50 mM potassium fluoride (KF); 0.25 mM CHAPS and 0.05% serum albumin (BSA)] to the substances in the test plate. This was followed by a 10-minute incubation step at 22° C. for the pre-equilibration of putative complexes between BRD4(2) and the substances.
(§4) The mixture was then incubated in the dark at 22° C. for one hour and then at 4° C. for at least 3 hours and for no longer than overnight. The formation of BRD4(2)/Ac-H4 complexes was determined by the measurement of the resonance energy transfer from the streptavidin-Eu chelate to the anti-6His-XL665 antibody present in the reaction. For this purpose, the fluorescence emission was measured at 620 nm and 665 nm after excitation at 330-350 nm in a TR-FRET measuring instrument, for example a Rubystar or Pherastar (both from BMG Lab Technologies, Offenburg, Germany) or a Viewlux (Perkin-Elmer). The ratio of the emissions at 665 nm and at 622 nm was taken as an indicator of the amount of BRD4(2)/Ac-H4 complexes formed.
The data (ratios) obtained were normalized, with 0% inhibition corresponding to the mean from the measurements for a set of controls (typically 32 data points) in which all the reagents were present. In these, in place of test substances, 50 nl of DMSO (100%) were used. Inhibition of 100% corresponded to the mean from the measurements for a set of controls (typically 32 data points) in which all the reagents except BRD4(2) were present. The IC50 was determined by regression analysis based on a 4-parameter equation (minimum, maximum, IC50, Hill; Y=max+(min−max)/(1+(X/IC50)Hill).

Experiment [2] concerns the target T2, BRD4 bromo domain 1 [BRD4(1)] (Homo sapiens, UniProt O60885).
T2 construct: N-terminally His6-tagged BRD4(1) (amino acids 67-152); made in house; host or cells: E. coli
Nature of the experiment: BRD4(1)/acetylated peptide H4 binding assay (TR-FRET). As to conditions: inhibition of interaction between His6-tagged BRD4(1) (amino acids 67-152) and acetylated histone H4 peptide.
Description: as §1
1. Assay Description for BRD4 Bromo Domain 1 [BRD4(1)]
To assess the BRD4(1) binding strength of the substances described in this application, the ability thereof to inhibit the interaction between BRD4(1) and acetylated histone H4 in a dose-dependent manner was quantified.
as §2, with “BRD4(1)” for “BRD4(2)”, “67-152)” for “357-445)”, “GRGK(Ac)GGK(Ac)GLGK(Ac)GGAK(Ac)RHGSGSK-biotin.” for “SGRGK(Ac)GGK(Ac)GLGK(Ac)GGAK(Ac)RHRKVLRDNGSGSK-biotin.”
as §3, with “concentrated BRD4(1)” for “concentrated BRD4(2)”, “typically 10” for “typically 100”, “chloride (NaCl),” for “chloride (NaCl); 50 mM potassium fluoride (KF);”, “between BRD4(1)” for “between BRD4(2)”
as §4, with “BRD4(1)/Ac-H4” for “BRD4(2)/Ac-H4”, “cryptate” for “chelate”
The data (ratios) obtained were normalized, with 0% inhibition corresponding to the mean from the measurements for a set of controls (typically 32 data points) in which all the reagents were present. In these, in place of test substances, 50 nl of DMSO (100%) were used. Inhibition of 100% corresponded to the mean from the measurements for a set of controls (typically 32 data points) in which all the reagents except BRD4(1) were present. The IC50 was determined by regression analysis based on a 4-parameter equation (minimum, maximum, IC50, Hill; Y=max+(min−max)/(1+(X/IC50)Hill).

Each structure is given as a SMILES string.

As for `C[C@@H]1C(=O)N(C)c2ccc(Nc3ccc(S(=O)(=O)N(C)C)cc3)nc2N1C1CCCCCC1` [Example 95, 4-{[(3R)-4-Cycloheptyl-1,3-dimethyl-2-oxo-1,2,3,4-tetrahydropyrido[2,3-b]pyrazin-6-yl]amino}-N,N-dimethylbenzenesulphonamide], the IC50 in experiment [1] came out at 126 nM; in experiment [2], 589 nM.

In the case of `C[C@@H]1C(=O)N(C)c2ccc(Nc3ccc(S(=O)(=O)N(C)C)cc3)nc2N1C1CCN(C(=O)OC(C)(C)C)CC1` [Example 106, tert-Butyl 4-[(3R)-6-{[4-(dimethylsulphamoyl)phenyl]amino}-1,3-dimethyl-2-oxo-2,3-dihydropyrido[2,3-b]pyrazin-4(1H)-yl]piperidine-1-carbonate], the 50% inhibitory concentration (IC50) in experiment [1] turned out to be 463 nM; in experiment [2], 632 nM.

In the case of `Cc1cc(C(=O)NCCN(C)C)ccc1Nc1ccc2c(n1)N(C1CCOCC1)[C@H](C)C(=O)N2C` [Example 63, N-[2-(Dimethylamino)ethyl]-4-{[(3R)-1,3-dimethyl-2-oxo-4-(tetrahydro-2H-pyran-4-yl)-1,2,3,4-tetrahydropyrido[2,3-b]pyrazin-6-yl]amino}-3-methylbenzamide], the half-maximal inhibitory concentration (IC50) was found to be 206 nM in experiment [1] and 262 nM in experiment [2].

`COc1cc(C(=O)NC2CCN(C)CC2)ccc1Nc1ccc2c(n1)N(C1CCCCC1)[C@H](C)C(=O)N2C` [Example 12, 4-{[(3R)-4-Cyclohexyl-1,3-dimethyl-2-oxo-1,2,3,4-tetrahydropyrido[2,3-b]pyrazin-6-yl]amino}-3-methoxy-N-(1-methylpiperidin-4-yl)benzamide]: the IC50 in experiment [1] turned out to be 111 nM; in experiment [2], 104 nM.

For the compound `C[C@@H]1C(=O)N(C)c2ccc(Nc3ccc(C(=O)NC4CCC(N5CCC(F)(F)CC5)CC4)cc3)nc2N1C1CCOCC1` (stereo partly drawn) [Example 52], the values for the half-inhibitory concentration (IC50) in experiment [1] and in experiment [2] were 299 nM and 166 nM, respectively.

Take `CC(C)N1c2nc(Nc3ccc(C(=O)N[C@H]4CC[C@H](N5CCN(CC6CC6)CC5)CC4)cc3)ccc2N(C)C(=O)[C@H]1C` [Example 96, N-{trans-4-[4-(Cyclopropylmethyl)piperazin-1-yl]cyclohexyl}-4-{[(3R)-1,3-dimethyl-2-oxo-4-(propan-2-yl)-1,2,3,4-tetrahydropyrido[2,3-b]pyrazin-6-yl]amino}benzamide]: the results for the 50% inhibitory concentration (IC50) in experiment [1] and in experiment [2] were 344 nM and 438 nM, respectively.

Turning to `CC(C)N1CCN(C(=O)c2ccc(Nc3ccc4c(n3)N(C3CCCCCC3)[C@H](C)C(=O)N4C)cc2)CC1` [Example 92, (3R)-4-Cylcoheptyl-1,3-dimethyl-6-[(4-{[4-(propan-2-yl)piperazin-1-yl]carbonyl}phenyl)amino]-3,4-dihydropyrido[2,3-b]pyrazin-2(1H)-one], the values for the half-maximal inhibitory concentration (IC50) in experiment [1] and in experiment [2] were 209 nM and 325 nM, respectively.

With `COc1cc(S(=O)(=O)N[C@H]2CC[C@H](N3CCN(CC4CC4)CC3)CC2)ccc1Nc1ccc2c(n1)N(C1CCOCC1)[C@H](C)C(=O)N2C` [Example 111, N-{trans-4-[4-(Cyclopropylmethyl)piperazin-1-yl]cyclohexyl}-4-{[(3R)-1,3-dimethyl-2-oxo-4-(tetrahydro-2H-pyran-4-yl)-1,2,3,4-tetrahydropyrido[2,3-b]pyrazin-6-yl]amino}-3-methoxybenzenesulphonamide], the values for the IC50 in experiment [1] and in experiment [2] were 130 nM and 29 nM, respectively.

In the case of `COc1cc(S(=O)(=O)NC2CCN(C)CC2)ccc1Nc1ccc2c(n1)N(C1CCOCC1)[C@H](C)C(=O)N2C` [Example 110, 4-{[(3R)-1,3-Dimethyl-2-oxo-4-(tetrahydro-2H-pyran-4-yl)-1,2,3,4-tetrahydropyrido[2,3-b]pyrazin-6-yl]amino}-3-methoxy-N-(1-methylpiperidin-4-yl)benzenesulphonamide], the concentration for half-maximal inhibition (IC50) in experiment [1] turned out to be 55 nM; in experiment [2] it was 38 nM.

As to `COCCN1c2nc(Nc3ccc(C(=O)N[C@H]4CC[C@H](N5CCN(CC6CC6)CC5)CC4)cc3)ccc2N(C)C(=O)C1C` (stereo partly drawn) [Example 105, N-{trans-4-[4-(Cyclopropylmethyl)piperazin-1-yl]cyclohexyl}-4-{[4-(2-methoxyethyl)-1,3-dimethyl-2-oxo-1,2,3,4-tetrahydropyrido[2,3-b]pyrazin-6-yl]amino}benzamide], the figures for the 50% inhibitory concentration (IC50) in experiment [1] and in experiment [2] were 187 nM and 452 nM, respectively.

Regarding `COc1cc(C(=O)N2CC3(COC3)C2)ccc1Nc1ccc2c(n1)N(C1CCCCC1)[C@H](C)C(=O)N2C` [Example 73, (3R)-4-Cyclohexyl-6-{[2-methoxy-4-(2-oxa-6-azaspiro[3.3]hept-6-ylcarbonyl)phenyl]amino}-1,3-dimethyl-3,4-dihydropyrido[2,3-b]pyrazin-2(1H)-one], the figures for the IC50 in experiment [1] and in experiment [2] were 196 nM and 273 nM, respectively.

`C[C@@H]1C(=O)N(C)c2ccc(Nc3ccc(S(=O)(=O)N[C@H]4CC[C@H](N5CCN(CC6CC6)CC5)CC4)cc3)nc2N1Cc1ccccc1` [Example 109, 4-{[(3R)-4-Benzyl-1,3-dimethyl-2-oxo-1,2,3,4-tetrahydropyrido[2,3-b]pyrazin-6-yl]amino}-N-{trans-4-[4-(cyclopropylmethyl)piperazin-1-yl]cyclohexyl}benzenesulphonamide]: the results for the IC50 in experiment [1] and in experiment [2] were 78 nM and 36 nM, respectively.
